{"source": "paper PMC11625190", "about": "(Synthetic and Systems Biotechnology, 2024)", "system": "ChAER1", "assay": "HPLC quantification of 4-hydroxydihydrocinnamaldehyde formation, crude enzyme", "assay_type": "biochemical, Cephalotaxus harringtonia", "details": "1 mM NADPH, 50 mM Tris-HCl pH 7.5, 30 °C, 1 h"}
{"smiles": "O=C/C=C/c1ccc(O)cc1", "note": "[p-coumaraldehyde]", "values": [{"measurement": "Km", "value": 467, "unit": "µM"}]}
